Results: ChEMBL document CHEMBL5465560, “Selectivity Literature for EUbOPEN Chemogenomic Library” (2024)

Key:
[1] = target: T1, Ephrin type-B receptor 2 (Homo sapiens) (UniProt P29323); experiment: Selectivity interaction (Kinase screening (Nanosyn)) EUB0000604a EPHB2
T1 sequence (whole entry): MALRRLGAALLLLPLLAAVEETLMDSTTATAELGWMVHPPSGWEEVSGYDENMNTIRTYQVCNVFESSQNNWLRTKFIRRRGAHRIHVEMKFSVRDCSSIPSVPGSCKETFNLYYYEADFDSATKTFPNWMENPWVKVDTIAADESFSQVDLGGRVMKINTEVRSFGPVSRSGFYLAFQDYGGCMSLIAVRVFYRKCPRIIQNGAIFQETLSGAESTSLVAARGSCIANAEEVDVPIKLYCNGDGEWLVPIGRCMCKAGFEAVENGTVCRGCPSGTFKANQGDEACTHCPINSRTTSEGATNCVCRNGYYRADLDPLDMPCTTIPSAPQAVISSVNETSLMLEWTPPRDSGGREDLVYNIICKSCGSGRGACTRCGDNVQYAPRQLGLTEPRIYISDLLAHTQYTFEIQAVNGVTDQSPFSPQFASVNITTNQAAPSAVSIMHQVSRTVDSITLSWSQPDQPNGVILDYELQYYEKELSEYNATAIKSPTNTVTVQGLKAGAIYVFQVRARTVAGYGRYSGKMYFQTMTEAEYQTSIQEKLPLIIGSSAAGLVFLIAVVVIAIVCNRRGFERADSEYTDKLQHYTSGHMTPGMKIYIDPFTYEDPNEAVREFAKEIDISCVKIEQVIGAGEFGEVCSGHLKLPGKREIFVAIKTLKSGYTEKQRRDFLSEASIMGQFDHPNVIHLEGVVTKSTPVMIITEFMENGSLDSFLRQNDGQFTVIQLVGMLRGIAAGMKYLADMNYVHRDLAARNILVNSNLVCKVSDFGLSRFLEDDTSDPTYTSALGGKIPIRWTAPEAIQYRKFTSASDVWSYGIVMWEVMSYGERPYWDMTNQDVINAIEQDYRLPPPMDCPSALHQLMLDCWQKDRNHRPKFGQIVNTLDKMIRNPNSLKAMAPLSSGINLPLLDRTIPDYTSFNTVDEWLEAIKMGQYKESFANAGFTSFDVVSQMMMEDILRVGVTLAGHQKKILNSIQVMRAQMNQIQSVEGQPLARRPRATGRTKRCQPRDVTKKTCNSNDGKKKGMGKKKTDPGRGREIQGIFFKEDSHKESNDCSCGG

[2] = target: Tyrosine-protein kinase BTK (Homo sapiens, UniProt Q06187); experiment: Selectivity interaction (Kinase panel (literature)) EUB0001199aCl BTK; details: at 1 µM
Sequence of Tyrosine-protein kinase BTK (Q06187 whole entry): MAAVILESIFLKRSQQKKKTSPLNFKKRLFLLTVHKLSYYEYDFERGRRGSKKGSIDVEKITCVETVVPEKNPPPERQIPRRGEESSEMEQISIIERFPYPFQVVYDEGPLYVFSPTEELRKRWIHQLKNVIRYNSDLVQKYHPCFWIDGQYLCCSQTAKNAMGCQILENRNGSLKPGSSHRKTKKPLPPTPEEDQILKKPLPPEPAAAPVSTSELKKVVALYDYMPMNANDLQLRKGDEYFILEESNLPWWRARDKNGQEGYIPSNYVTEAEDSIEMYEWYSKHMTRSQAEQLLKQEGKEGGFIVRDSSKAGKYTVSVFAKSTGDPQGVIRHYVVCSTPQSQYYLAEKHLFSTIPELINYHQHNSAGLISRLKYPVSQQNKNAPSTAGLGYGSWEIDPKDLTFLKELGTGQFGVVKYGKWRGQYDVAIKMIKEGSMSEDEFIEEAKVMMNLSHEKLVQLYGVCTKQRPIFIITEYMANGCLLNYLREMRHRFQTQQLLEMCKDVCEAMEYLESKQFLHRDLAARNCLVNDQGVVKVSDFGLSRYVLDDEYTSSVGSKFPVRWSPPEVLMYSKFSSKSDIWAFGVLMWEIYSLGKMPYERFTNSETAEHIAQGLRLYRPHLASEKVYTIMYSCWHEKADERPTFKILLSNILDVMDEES

[3] = target: Bromodomain-containing protein 4 (Homo sapiens, UniProt O60885); experiment: Selectivity interaction (AlphaScreen binding assay) EUB0001632a BRD4
[4] = target: Serine/threonine-protein kinase PAK 3 (Homo sapiens) (UniProt O75914); experiment: Selectivity interaction (Kinase panel (Z-LYTE Assay)) EUB0001632a PAK3; details: at 10 µM
Sequence of Serine/threonine-protein kinase PAK 3 (Homo sapiens) (O75914 whole entry, looked up): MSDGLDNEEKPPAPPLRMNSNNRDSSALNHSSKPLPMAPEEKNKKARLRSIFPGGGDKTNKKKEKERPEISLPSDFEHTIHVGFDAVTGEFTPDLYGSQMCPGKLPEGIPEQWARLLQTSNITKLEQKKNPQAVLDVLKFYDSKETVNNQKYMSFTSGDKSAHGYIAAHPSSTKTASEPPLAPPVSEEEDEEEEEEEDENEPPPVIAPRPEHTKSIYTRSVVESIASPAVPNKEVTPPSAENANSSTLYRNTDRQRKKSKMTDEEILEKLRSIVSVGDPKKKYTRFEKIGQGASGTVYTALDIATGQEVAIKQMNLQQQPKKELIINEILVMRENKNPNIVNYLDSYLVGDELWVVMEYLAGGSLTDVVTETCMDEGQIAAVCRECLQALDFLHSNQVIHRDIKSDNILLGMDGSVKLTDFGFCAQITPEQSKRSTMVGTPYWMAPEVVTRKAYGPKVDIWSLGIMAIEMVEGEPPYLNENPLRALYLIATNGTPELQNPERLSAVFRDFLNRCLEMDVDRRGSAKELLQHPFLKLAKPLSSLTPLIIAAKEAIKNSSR

[5] = target: Serine/threonine-protein kinase pim-3 (Homo sapiens) (UniProt Q86V86); experiment: Selectivity interaction (KinomeScan (DiscoverX)) EUB0000695a PIM3; details: at 100 nM
[6] = target: T2, Serine/threonine-protein kinase ULK3 (Homo sapiens) (UniProt Q6PHR2); experiment: Selectivity interaction (KinomeScan (DiscoverX)) EUB0000695a ULK3; details: at 100 nM
T2 sequence (whole entry): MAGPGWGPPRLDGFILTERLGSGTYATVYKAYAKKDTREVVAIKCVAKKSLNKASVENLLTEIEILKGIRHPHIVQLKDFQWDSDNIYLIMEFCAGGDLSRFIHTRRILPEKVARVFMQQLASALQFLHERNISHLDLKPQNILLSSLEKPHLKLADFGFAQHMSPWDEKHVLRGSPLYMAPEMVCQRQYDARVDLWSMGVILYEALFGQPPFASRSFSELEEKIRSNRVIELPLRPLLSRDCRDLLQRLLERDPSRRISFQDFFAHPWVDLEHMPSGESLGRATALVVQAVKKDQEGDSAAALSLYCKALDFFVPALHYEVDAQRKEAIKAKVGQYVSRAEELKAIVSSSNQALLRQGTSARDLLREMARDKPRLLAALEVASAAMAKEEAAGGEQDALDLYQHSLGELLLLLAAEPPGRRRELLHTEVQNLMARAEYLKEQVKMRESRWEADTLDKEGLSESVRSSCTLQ

[7] = target: Receptor-type tyrosine-protein kinase FLT3 (Homo sapiens) (UniProt P36888); experiment: Selectivity interaction (KinomeScan (DiscoverX)) EUB0000229b FLT3; details: at 10 µM
Sequence of Receptor-type tyrosine-protein kinase FLT3 (Homo sapiens) (P36888 whole entry): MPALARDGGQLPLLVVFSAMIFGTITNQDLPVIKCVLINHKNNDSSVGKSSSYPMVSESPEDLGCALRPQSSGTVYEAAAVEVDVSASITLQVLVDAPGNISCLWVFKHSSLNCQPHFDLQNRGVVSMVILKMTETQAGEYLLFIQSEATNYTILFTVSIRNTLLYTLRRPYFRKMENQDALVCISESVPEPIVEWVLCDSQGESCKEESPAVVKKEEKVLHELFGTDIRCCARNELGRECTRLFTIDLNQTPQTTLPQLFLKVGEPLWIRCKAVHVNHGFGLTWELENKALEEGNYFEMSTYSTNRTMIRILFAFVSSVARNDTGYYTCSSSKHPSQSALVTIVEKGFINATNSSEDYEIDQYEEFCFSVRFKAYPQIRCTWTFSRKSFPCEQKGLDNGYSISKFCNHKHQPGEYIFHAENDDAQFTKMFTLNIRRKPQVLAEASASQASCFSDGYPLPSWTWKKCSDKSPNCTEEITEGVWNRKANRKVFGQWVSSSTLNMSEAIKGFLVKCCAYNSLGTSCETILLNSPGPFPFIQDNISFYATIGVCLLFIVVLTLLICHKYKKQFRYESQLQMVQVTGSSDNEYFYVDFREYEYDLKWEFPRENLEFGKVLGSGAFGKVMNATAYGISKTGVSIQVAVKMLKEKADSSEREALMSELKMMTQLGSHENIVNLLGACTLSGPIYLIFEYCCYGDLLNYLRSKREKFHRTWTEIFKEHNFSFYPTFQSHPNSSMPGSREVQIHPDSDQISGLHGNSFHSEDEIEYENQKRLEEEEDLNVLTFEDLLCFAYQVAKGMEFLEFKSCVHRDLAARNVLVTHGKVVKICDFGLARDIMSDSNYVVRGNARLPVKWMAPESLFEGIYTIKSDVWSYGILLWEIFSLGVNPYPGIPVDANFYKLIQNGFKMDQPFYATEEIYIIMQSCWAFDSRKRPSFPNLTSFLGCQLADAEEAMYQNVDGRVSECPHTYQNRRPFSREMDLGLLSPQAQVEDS

[8] = target: Non-receptor tyrosine-protein kinase TYK2 (Homo sapiens, UniProt P29597); experiment: Selectivity interaction (KinomeScan (DiscoverX)) EUB0000045b TYK2; details: at 1 µM
Sequence of Non-receptor tyrosine-protein kinase TYK2 (P29597 whole entry): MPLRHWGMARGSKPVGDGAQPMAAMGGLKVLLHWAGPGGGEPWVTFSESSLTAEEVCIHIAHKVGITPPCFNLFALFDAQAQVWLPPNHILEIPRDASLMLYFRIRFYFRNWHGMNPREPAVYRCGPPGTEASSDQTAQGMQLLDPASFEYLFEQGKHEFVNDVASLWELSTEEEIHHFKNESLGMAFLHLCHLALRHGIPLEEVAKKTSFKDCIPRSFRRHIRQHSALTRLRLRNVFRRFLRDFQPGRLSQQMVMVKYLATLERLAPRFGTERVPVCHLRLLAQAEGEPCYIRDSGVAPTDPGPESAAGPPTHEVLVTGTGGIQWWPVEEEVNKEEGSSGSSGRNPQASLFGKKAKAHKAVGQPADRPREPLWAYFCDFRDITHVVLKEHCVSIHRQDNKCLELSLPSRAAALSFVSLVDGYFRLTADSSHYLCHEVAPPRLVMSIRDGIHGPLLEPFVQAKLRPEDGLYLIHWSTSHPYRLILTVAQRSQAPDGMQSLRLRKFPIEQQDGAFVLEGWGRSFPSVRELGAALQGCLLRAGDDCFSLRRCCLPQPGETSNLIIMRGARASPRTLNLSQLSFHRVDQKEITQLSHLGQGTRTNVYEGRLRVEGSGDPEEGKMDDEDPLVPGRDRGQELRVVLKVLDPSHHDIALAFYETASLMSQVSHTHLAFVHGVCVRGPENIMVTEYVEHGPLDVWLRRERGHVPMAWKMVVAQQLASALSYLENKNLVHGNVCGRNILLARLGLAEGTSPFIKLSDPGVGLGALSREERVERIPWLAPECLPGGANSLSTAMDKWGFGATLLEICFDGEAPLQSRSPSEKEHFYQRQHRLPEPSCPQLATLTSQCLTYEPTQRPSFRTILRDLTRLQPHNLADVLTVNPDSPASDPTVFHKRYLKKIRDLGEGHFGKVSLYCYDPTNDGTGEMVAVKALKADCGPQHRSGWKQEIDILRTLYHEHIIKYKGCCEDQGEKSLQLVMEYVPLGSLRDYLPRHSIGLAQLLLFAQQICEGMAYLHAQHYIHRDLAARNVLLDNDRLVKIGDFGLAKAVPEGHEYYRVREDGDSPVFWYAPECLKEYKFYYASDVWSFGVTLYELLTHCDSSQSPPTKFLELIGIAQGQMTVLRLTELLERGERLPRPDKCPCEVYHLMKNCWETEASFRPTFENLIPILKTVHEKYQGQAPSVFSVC

[9] = target: Macrophage colony-stimulating factor 1 receptor (Homo sapiens) (UniProt P07333); experiment: Selectivity interaction (KinomeScan (DiscoverX)) EUB0000607a CSF1R; details: at 10 µM
Sequence of Macrophage colony-stimulating factor 1 receptor (Homo sapiens) (P07333 whole entry): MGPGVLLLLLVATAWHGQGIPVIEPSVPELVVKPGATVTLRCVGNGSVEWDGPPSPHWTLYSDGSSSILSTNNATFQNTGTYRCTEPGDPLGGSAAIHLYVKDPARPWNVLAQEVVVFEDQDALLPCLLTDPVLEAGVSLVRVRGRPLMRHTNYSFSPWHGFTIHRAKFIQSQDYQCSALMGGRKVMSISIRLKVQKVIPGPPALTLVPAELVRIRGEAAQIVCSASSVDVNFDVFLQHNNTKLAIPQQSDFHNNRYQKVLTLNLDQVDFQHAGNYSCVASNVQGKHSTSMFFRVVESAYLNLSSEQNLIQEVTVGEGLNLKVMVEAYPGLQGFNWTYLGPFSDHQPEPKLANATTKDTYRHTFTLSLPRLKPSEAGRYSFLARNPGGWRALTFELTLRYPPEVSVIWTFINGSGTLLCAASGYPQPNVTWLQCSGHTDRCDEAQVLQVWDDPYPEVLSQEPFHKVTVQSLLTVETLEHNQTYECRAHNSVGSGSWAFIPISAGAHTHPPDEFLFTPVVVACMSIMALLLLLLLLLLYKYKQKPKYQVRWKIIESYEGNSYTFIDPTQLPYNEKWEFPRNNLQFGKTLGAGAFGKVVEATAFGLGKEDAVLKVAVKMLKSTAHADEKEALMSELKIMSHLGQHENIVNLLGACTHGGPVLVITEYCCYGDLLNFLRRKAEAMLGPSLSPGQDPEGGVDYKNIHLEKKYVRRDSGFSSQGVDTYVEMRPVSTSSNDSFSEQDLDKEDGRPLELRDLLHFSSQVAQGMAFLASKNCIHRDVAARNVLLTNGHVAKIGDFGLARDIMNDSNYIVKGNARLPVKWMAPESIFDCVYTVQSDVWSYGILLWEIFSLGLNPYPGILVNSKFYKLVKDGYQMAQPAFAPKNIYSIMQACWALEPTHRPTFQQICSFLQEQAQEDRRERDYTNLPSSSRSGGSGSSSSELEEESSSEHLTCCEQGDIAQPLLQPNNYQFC

Work on `Cc1cnc(Nc2ccc(F)cc2Cl)nc1-c1c[nH]c(C(=O)N[C@H](CO)c2cccc(Cl)c2)c1` yielded a % of inhibition [1] of 0%.

`CN1Cc2nccc(-c3cn(C)nc3-c3ccc(F)cc3)c2C1=O` showed a % of inhibition [2] of 2%.

`Cn1cc(-n2cnc3c(NCc4nc5cc(Cl)c(Cl)cc5[nH]4)nc(N4CCOCC4)nc32)cn1` gave an IC50 [3] greater than 10 µM and a % of control [4] of -20.7%.

Work on `Cc1cc(F)c(C(=O)Nc2cccc(-c3nncn3C(C)C)n2)cc1-n1cnc(C2CC2)c1` yielded a % of control [5] of 92% and a % of control [6] of 80%.

With `COc1cc(N(C)c2ccnc3ccc(C(F)(F)F)cc23)cc(OC)c1OC` the % binding [7] was 85%.

Compound `C=CC(=O)Nc1cc(-n2c(=O)ccc3cnc4ccc(-c5ccc(NS(C)(=O)=O)cc5)cc4c32)ccc1C` has a % of control [8] of 80%.

`CNC(=O)Nc1ccc(-c2nc(N3CC4CCC(C3)O4)c3cnn(C4CCC5(CC4)OCCO5)c3n2)cc1` showed a % of control [9] of 100%.
